EPA's ToxRefDB 2

How the values were obtained:
dog [1] = settings: Subchronic oral toxicity in nonrodent, beagle, Gavage/Intubation, dose end: 92 day, group: systemic
dog [2] = settings: Sub-acute repeat dose toxicity, beagle, Oral, Gavage/Intubation, dose end: 14 day, group: systemic
rat [3] = settings: Fertility (Segment I), sprague dawley, Oral, Gavage/Intubation, dose end: 1 generation, group: parental
rabbit [4] = settings: Sub-acute repeat dose toxicity, new zealand white, Oral, Gavage/Intubation, dose end: 5 day, group: systemic
rat [5] = settings: Fertility (Segment I); sprague dawley; Oral; Gavage/Intubation; dose end: 1 generation; group: parental; systemic / in life observation / body weight / body weight gain + systemic / in life observation / clinical signs / anogenital staining
rat [6] = settings: Subchronic oral toxicity in rodents, sprague dawley, Gavage/Intubation, dose end: 90 day, group: systemic
rat [7] = settings: Sub-acute repeat dose toxicity, sprague dawley, Oral, Gavage/Intubation, dose end: 14 day, group: systemic
rat [8] = settings: Subchronic oral toxicity in rodents, fischer, Gavage/Intubation, dose end: 13 week, group: systemic
mouse [9] = settings: Carcinogenicity, b6c3f1, Oral, Gavage/Intubation, dose end: 2 year, group: systemic
rat [10] = settings: Carcinogenicity, fischer, Oral, Gavage/Intubation, dose end: 2 year, group: systemic
mouse [11] = settings: Subchronic oral toxicity in rodents, b6c3f1, Gavage/Intubation, dose end: 13 week, group: systemic
dog [12] = settings: Chronic toxicity, beagle, Oral, Feed, dose end: 52 week, group: systemic
rat [13] = settings: Subchronic oral toxicity in rodents, sprague dawley, Feed, dose end: 90 day, group: systemic, systemic / clinical chemistry / cytochrome p450, nos / cytochrome p450, nos + systemic / in life observation / body weight / body weight …
mouse [14] = settings: Subchronic oral toxicity in rodents, cd1, Feed, dose end: 90 day, group: systemic, systemic / organ weight / liver / absolute + systemic / organ weight / liver / relative to body weight + systemic / organ weight / liver / …
rat [15] = settings: Combined chronic toxicity/carcinogenicity, sprague dawley, Oral, Feed, dose end: 23 month, group: systemic
rabbit [16] = settings: Prenatal developmental toxicity study, other, Oral, Gavage/Intubation, dose end: 19 GD
mouse [17] = settings: Carcinogenicity, cd1, Oral, Feed, dose end: 18 month, group: systemic
dog [18] = settings: Subchronic oral toxicity in nonrodent, beagle, Feed, dose end: 90 day, group: systemic, systemic / hematology / erythrocyte (rbc) count differential / erythrocyte (rbc) + systemic / hematology / hematocrit (hct) / hematocrit (…
rat [19] = settings: Multigenerational reproductive toxicity study, other, Oral, Feed, dose end: 2 generation
rat [20] = settings: Prenatal developmental toxicity study, sprague dawley, Oral, Gavage/Intubation, dose end: 16 GD
[21] = systemic / clinical chemistry / albumin / albumin + systemic / in life observation / clinical signs / erythema + systemic / clinical …
[22] = systemic / clinical chemistry / [other] / [other] + systemic / clinical chemistry / hepatic mixed function oxidase (mfo) assay / hepatic …
[23] = systemic / in life observation / clinical signs / abnormal feces
[24] = systemic / in life observation / clinical signs / anogenital staining + systemic / in life observation / clinical signs / salivation
[25] = systemic / in life observation / body weight / body weight + systemic / in life observation / clinical signs / abnormal feces + systemic / …
[26] = systemic / in life observation / mortality / mortality + systemic / in life observation / body weight / body weight + systemic / in life …
[27] = systemic / in life observation / clinical signs / salivation + systemic / pathology microscopic / bone / proliferation
[28] = systemic / in life observation / clinical signs / salivation + systemic / pathology microscopic / bone / proliferation + systemic / …
[29] = systemic / clinical chemistry / [other] / [other] + systemic / clinical chemistry / cytochrome p450, nos / cytochrome p450, nos + systemic…
[30] = systemic / in life observation / clinical signs / salivation
[31] = systemic / in life observation / mortality / mortality + systemic / pathology microscopic / brain / degeneration + systemic / pathology …
[32] = systemic / pathology microscopic / stomach / hyperplasia
[33] = systemic / pathology microscopic / stomach / papilloma + systemic / pathology microscopic / stomach / hyperplasia
[34] = systemic / pathology microscopic / spleen / leukemia mononuclear
[35] = systemic / pathology microscopic / spleen / leukemia mononuclear + systemic / pathology microscopic / stomach / papilloma + systemic / …
[36] = systemic / in life observation / mortality / mortality + systemic / in life observation / body weight / body weight + systemic / pathology …
[37] = systemic / in life observation / body weight / body weight gain + systemic / organ weight / thyroid gland / absolute + systemic / organ …
[38] = systemic / hematology / erythrocyte (rbc) count differential / erythrocyte (rbc) + systemic / hematology / hematocrit (hct) / hematocrit (…
[39] = group: developmental, systemic / in life observation / body weight / fetal weight
[40] = group: maternal, reproductive / reproductive performance / resorptions / resorptions + systemic / in life observation / body weight / body weight gain + …
[41] = systemic / pathology microscopic / liver / adenoma
[42] = systemic / pathology microscopic / liver / adenoma + systemic / hematology / platelet / platelet + systemic / in life observation / body …
[43] = group: offspring, systemic / in life observation / body weight / offspring (pup) weight + systemic / in life observation / body weight / offspring (pup) …
[44] = group: parental, systemic / in life observation / body weight / body weight + systemic / in life observation / body weight / body weight gain + systemic / in…
[45] = group: developmental, developmental / developmental malformation / bone / delayed ossification + developmental / developmental malformation / bone / short
[46] = group: maternal, systemic / in life observation / clinical signs / salivation
[47] = group: maternal, systemic / in life observation / clinical signs / salivation + systemic / in life observation / body weight / body weight gain + systemic / …

Structure (SMILES): O=C(NO)C1(NS(=O)(=O)c2ccc(Oc3ccc(F)cc3)cc2)CCOCC1
- NEL (dog [1]; systemic / clinical chemistry / albumin / albumin + systemic / in life observation / clinical signs / erythema): 10 mg/kg/day
- LOAEL (dog [1]; [21]): > 400 mg/kg/day
- NOAEL (dog [1]; [21]): ≥ 400 mg/kg/day
- LEL (dog [1]; systemic / in life observation / clinical signs / erythema + systemic / clinical chemistry / albumin / albumin + systemic / clinical …): 100 mg/kg/day
- LOAEL (dog [2]; [22]): > 400 mg/kg/day
- NOAEL (dog [2]; [22]): ≥ 400 mg/kg/day
- LEL (dog [2]; [23]): 10 mg/kg/day
- NEL (dog [2]; [23]): < 10 mg/kg/day
- LEL (rat [3]; systemic / in life observation / clinical signs / anogenital staining): 50 mg/kg/day
- LOAEL (rat [3]; [24]): > 1000 mg/kg/day
- NEL (rat [3]; [24]): 10 mg/kg/day
- NOAEL (rat [3]; [24]): ≥ 1000 mg/kg/day
- LEL (rabbit [4]; [25]): 60 mg/kg/day
- NEL (rabbit [4]; [25]): < 60 mg/kg/day
- LOAEL (rabbit [4]; [26]): > 600 mg/kg/day
- NOAEL (rabbit [4]; [26]): ≥ 600 mg/kg/day
- LEL (rat [5]): 1000 mg/kg/day
- LOAEL (rat [5]): > 1000 mg/kg/day
- NEL (rat [5]): 50 mg/kg/day
- NOAEL (rat [5]): ≥ 1000 mg/kg/day
- LEL (rat [6]; [27]): 10 mg/kg/day
- NEL (rat [6]; [27]): < 10 mg/kg/day
- LOAEL (rat [6]; [28]): > 1000 mg/kg/day
- NOAEL (rat [6]; [28]): ≥ 1000 mg/kg/day
- LOAEL (rat [7]; [29]): > 1000 mg/kg/day
- NOAEL (rat [7]; [29]): ≥ 1000 mg/kg/day
- LEL (rat [7]; [30]): 50 mg/kg/day
- NEL (rat [7]; systemic / in life observation / clinical signs / salivation + systemic / in life observation / clinical signs / urine staining - perineum…): 10 mg/kg/day

Structure (SMILES): O=Cc1ccccc1 [Benzaldehyde]
- LEL (rat [8]; systemic / in life observation / mortality / mortality): 400 mg/kg/day
- LOAEL (rat [8]; [31]): > 800 mg/kg/day
- NEL (rat [8]; [31]): 200 mg/kg/day
- NOAEL (rat [8]; [31]): ≥ 800 mg/kg/day
- LOAEL (mouse [9]; [32]): > 400 mg/kg/day
- NOAEL (mouse [9]; [32]): ≥ 400 mg/kg/day
- LEL (mouse [9]; [33]): 300 mg/kg/day
- NEL (mouse [9]; [33]): < 300 mg/kg/day
- LEL (rat [10]; [34]): 200 mg/kg/day
- NEL (rat [10]; [34]): < 200 mg/kg/day
- LOAEL (rat [10]; [35]): > 400 mg/kg/day
- NOAEL (rat [10]; [35]): ≥ 400 mg/kg/day
- NEL (mouse [11]; systemic / in life observation / body weight / body weight + systemic / in life observation / mortality / mortality + systemic / pathology …): 300 mg/kg/day
- LEL (mouse [11]; systemic / in life observation / body weight / body weight + systemic / pathology microscopic / kidney / degeneration): 600 mg/kg/day
- LOAEL (mouse [11]; [36]): > 1200 mg/kg/day
- NOAEL (mouse [11]; [36]): ≥ 1200 mg/kg/day

Structure (SMILES): COc1cc(OC)nc(Sc2cccc(Cl)c2C(=O)[O-])n1.[Na+] [Pyrithiobac-sodium]
- LOAEL (dog [12]; [37]): 580 mg/kg/day
- NOAEL (dog [12]; [37]): 143 mg/kg/day
- LEL (dog [12]; [30]): 2.8 mg/kg/day
- NEL (dog [12]; [30]): < 2.8 mg/kg/day
- LEL (rat [13]): 31.8 mg/kg/day
- LOAEL (rat [13]): 31.8 mg/kg/day
- NEL (rat [13]): 3.25 mg/kg/day
- NOAEL (rat [13]): 3.25 mg/kg/day
- LEL (mouse [14]): 263 mg/kg/day
- LOAEL (mouse [14]): 263 mg/kg/day
- NEL (mouse [14]): 83.1 mg/kg/day
- NOAEL (mouse [14]): 83.1 mg/kg/day
- LEL (rat [15]; systemic / clinical chemistry / sodium / sodium): 1.36 mg/kg/day
- NEL (rat [15]; systemic / clinical chemistry / sodium / sodium + systemic / pathology microscopic / kidney / adenoma + systemic / in life observation / …): 0.274 mg/kg/day
- LOAEL (rat [15]; [38]): 200 mg/kg/day
- NOAEL (rat [15]; [38]): 58.7 mg/kg/day
- LEL (rabbit [16]; [39]): 1000 mg/kg/day
- LOAEL (rabbit [16]; [39]): 1000 mg/kg/day
- NEL (rabbit [16]; [39]): 300 mg/kg/day
- NOAEL (rabbit [16]; [39]): 300 mg/kg/day
- LEL (rabbit [16]; [40]): 1000 mg/kg/day
- LOAEL (rabbit [16]; [40]): 1000 mg/kg/day
- NEL (rabbit [16]; [40]): 300 mg/kg/day
- NOAEL (rabbit [16]; [40]): 300 mg/kg/day
- LEL (mouse [17]; [41]): 21.4 mg/kg/day
- LOAEL (mouse [17]; [41]): 21.4 mg/kg/day
- NEL (mouse [17]; [42]): 1.43 mg/kg/day
- NOAEL (mouse [17]; [42]): 1.43 mg/kg/day
- LEL (dog [18]): 626 mg/kg/day
- LOAEL (dog [18]): 626 mg/kg/day
- NEL (dog [18]): 165 mg/kg/day
- NOAEL (dog [18]): 165 mg/kg/day
- LOAEL (rat [19]; group: offspring, systemic / in life observation / body weight / offspring (pup) weight): 614 mg/kg/day
- LEL (rat [19]; [43]): 614 mg/kg/day
- NEL (rat [19]; [43]): 119 mg/kg/day
- NOAEL (rat [19]; [43]): 119 mg/kg/day
- LOAEL (rat [19]; [44]): 439 mg/kg/day
- NOAEL (rat [19]; [44]): 85.6 mg/kg/day
- LEL (rat [19]; group: parental, systemic / in life observation / food consumption / food efficiency): 119 mg/kg/day
- NEL (rat [19]; group: parental, systemic / in life observation / food consumption / food efficiency + systemic / in life observation / body weight / body weight + systemic…): 1.93 mg/kg/day
- LEL (rat [20]; [45]): 1800 mg/kg/day
- LOAEL (rat [20]; [45]): 1800 mg/kg/day
- NEL (rat [20]; [45]): 600 mg/kg/day
- NOAEL (rat [20]; [45]): 600 mg/kg/day
- LEL (rat [20]; [46]): 200 mg/kg/day
- LOAEL (rat [20]; [46]): 200 mg/kg/day
- NEL (rat [20]; [47]): 30 mg/kg/day
- NOAEL (rat [20]; [47]): 30 mg/kg/day
